Results reported in US20260115177A1, “MEDICINAL PRODUCTS AND METHODS FOR THE ALLEVIATION OF CANCER IMMUNOTHERA-PY-ASSOCIATED CYTOKINE RELEASE SYNDROME” (POOLBEG PHARMA (UK) LIMITED, priority 2023, published 2026).

Experiments:
CAR T cells = experiment: T cell exhaustion markers TIM3 and LAG3 on CAR T cells in co-culture (flow cytometry); type: cell-based, human; conditions: CAR T:tumour cell co-culture, concentrations of Table 2
Experimental: UR-13870, Ralimetinib or Acumapimod are each added to a culture of CD19+ cancer cells (using a micropipette to transfer the correct volume to achieve the desired final concentration in Table 2).
CAR T cells are then added to the same culture 5-10 minutes later. In brief, CAR T cell concentrations per ml are determined and used to aliquot the desired number of CAR T cells into the culture to achieve the described 1:1 CAR T to cancer cell ratio.
The co-culture containing CAR T cells and tumour cells is swirled gently to ensure homogenous dispersion of cells throughout the vessel. The resultant co-culture is incubated for 24 to 96 hours in a closed incubator at 37° C. with 5% CO2 and a suitably humid atmosphere.
Both T cell surface markers T cell immunoglobulin and mucin domain-containing protein 3 (TIM3/CD366) and Lymphocyte Activation Gene 3 (LAG3/CD223) are associated with T cell exhaustion and disease progression during immunotherapy treatment. Advantageously, all of UR-13870, Ralimetinib and Acumapimod reduce both the number of TIM3+ CAR T cells, and the number of LAG3+ CAR T cells. […] For LAG3+, the results for Ralimetinib at a 5 μM concentration appear to have been affected by experimental failure, and these may be disregarded accordingly.

THP-1 monocytes = experiment: IL-6 ELISA of THP-1 monocytes treated with sCAR; type: cell-based, human; conditions: sCAR stimulation, 24 hours; concentrations of Table 2
Experimental: In Example 3 below, sCAR (or smCAR) is added using a micropipette to an in vitro culture of monocyte cells of the human monocytic cell line THP-1, available from the American Type Culture Collection. The culture is incubated in a closed incubator at 37° C. with 5% CO2 and a suitably humid atmosphere for approximately 24 hours, following which cytokine release is observed. p38 MAPK activation and cytokine release are confirmed by evaluation of the presence of IL-6 in THP-1 cells using an enzyme-linked immunosorbent assay (ELISA; for which a kit is suitably obtainable from Thermo Fisher Scientific of Kingfisher Dr, Swindon SN3 5BZ, UK).
(i) Monocytes sCAR (or smCAR), produced as described in Example 1 above, is added to a monoculture of THP-1 monocytes in the presence of UR-13870, Ralimetinib or Acumapimod at each of the concentrations shown in Table 2 above at 37° C., 5% CO2 and a suitably humid environment for 24 hours.
Supernatant levels of IL-6 from the THP-1 monocyte monoculture with sCAR (or smCAR) are determined by ELISA.

OCCCn1cc2c(-c3ccc(F)cc3)c(-c3ccncc3)c(-c3ccc(F)cc3)nc2n1 [UR-13870, 6-bis(4-fluorophenyl)-5-(4-pyridinyl)-2Hpyrazolo[3,4-b]pyridine-2-propanol] was tested, and the “number of TIM3+ CAR T cells” value (CAR T cells) was “reduce”, the “number of LAG3+ CAR T cells” value (CAR T cells; Ralimetinib 5 μM results to be disregarded) was “reduce” and the “IL-6 secretion by THP-1 monocytes” value (THP-1 monocytes) was “significantly reduce”.
